Experimental data published in patent US8211883B2, “Topical delivery of phthalocyanines” (priority 2004, dated 2012).
Marks after values point to notes of the source that are not given here.

How the values were obtained:
[1] = test system: RIF-1 (radiation-induced fibrosarcoma) tumors; assay: PDT of RIF-1 implanted tumors; type: in vivo, C3H/HeN mice; parameters: key to Tumor Responses at 24 hours: complete: no evidence of any tumor mass in any animal; only the scar from the photodynamic therapy was evident.; near complete: evidence of any tumor mass in four or five animals; only some tumor mass in one or two animals.; substantial: a significant tumor shrinkage occurred in all animals. In some animals the tumor response was complete, yet in others the response was not complete.; moderate: some tumor shrinkage was evident in some animals. In animals with some tumor shrinkage, scar formation was evident.; slight: some tumor decrease occurred in one or two mice; conditions: for Tumor Responses at 24 hours / Doubling Time of Initial Tumor Volume after PDT: 1 mg/kg in corn oil, 675 nm; for Tumor Responses at 24 hours: 135 J/cm^2, light 24 h after dosing; for Doubling Time of Initial Tumor Volume after PDT: 135 J/cm^2, controls 4 days
[2] = test system: Chinese hamster V79-379 lung fibroblasts; assay: Uptake of phthalocyanines into V79 cells; conditions: for Uptake Into V79 Cells, 1 μM / Uptake Into V79 Cells, 4 μM: 18 hours; for n Moles/10^6 Cells/μM (composite uptake value): V79 cells, average of all data, asterisk: listed value is for 1 μM, average would be higher
Summary of the method: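 V79-379 cells were incubated with phthalocyanine for 18 h, typically at 1, 2 and/or 4 μM. Cells collected on filters were extracted into ethanol and absorbance read at the peak, usually 668 nm. Values are nmol per 10^6 cells, using ε 2.93×10^5.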

| SMILES | Tumor Responses at 24 hours [1] | Doubling Time of Initial Tumor Volume after PDT [1] | Histological examination of treated tumors ([1]; RIF-1 tumors after PDT) | Uptake Into V79 Cells, 1 μM [2] | Uptake Into V79 Cells, 4 μM [2] | n Moles/10^6 Cells/μM (composite uptake value) [2] |
| --- | --- | --- | --- | --- | --- | --- |
| CN(C)CCC[Si](C)(C)O[Si]1(O)n2c3c4ccccc4c2N=C2N=C(N=c4c5ccccc5c(n41)=NC1=NC(=N3)c3ccccc31)c1ccccc12 (stereo not shown) [Compound IV, HOSiPcOSi(CH3)2(CH2)3N(CH3)2] | near complete | 16 days | presence of apoptotic bodies in the tumor |  |  |  |
| CN(C)CCC[Si](C)(C)O[Si]1(O[Si](C)(C)CCCN(C)C)n2c3c4ccccc4c2N=C2N=C(N=c4c5ccccc5c(n41)=NC1=NC(=N3)c3ccccc31)c1ccccc12 [Compound XII, SiPc[OSi(CH3)2(CH2)3N(CH3)2]2] | complete | 20 days |  | 2.1 ± 1.2 n Moles/10^6 cells | 4.6 ± 1.5 n Moles/10^6 cells | 1.6 n Moles/10^6 Cells/μM |
| CCN(CCC[Si](C)(C)O[Si]1(O[Si](C)(C)CCCN(CC)CCN(C)C)n2c3c4ccccc4c2N=C2N=C(N=c4c5ccccc5c(n41)=NC1=NC(=N3)c3ccccc31)c1ccccc12)CCN(C)C [Compound XVIII, SiPc[OSi(CH3)2(CH2)3N(CH2CH3)(CH2)2N(CH3)2]2] | near complete | 12 days |  | 0.3 ± 0.1 n Moles/10^6 cells | 3.6 ± 0.6 n Moles/10^6 cells | 0.3* n Moles/10^6 Cells/μM |
